Data published in ChEMBL document CHEMBL1149210, “A novel series of potent and selective small molecule inhibitors of the complement component C1s” (Bioorg Med Chem Lett, 2004).

Molecular target: Coagulation factor X (Homo sapiens, UniProt P00742)
Test: In vitro binding affinity towards Coagulation factor X was determined

Chain of Coagulation factor X (P00742 41-179 limits assumed): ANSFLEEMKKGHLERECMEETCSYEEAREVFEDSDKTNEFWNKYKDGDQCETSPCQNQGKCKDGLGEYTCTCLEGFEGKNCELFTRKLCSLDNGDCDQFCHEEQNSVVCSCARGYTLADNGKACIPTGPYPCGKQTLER
Chain of Coagulation factor X (P00742 235-488 limits assumed): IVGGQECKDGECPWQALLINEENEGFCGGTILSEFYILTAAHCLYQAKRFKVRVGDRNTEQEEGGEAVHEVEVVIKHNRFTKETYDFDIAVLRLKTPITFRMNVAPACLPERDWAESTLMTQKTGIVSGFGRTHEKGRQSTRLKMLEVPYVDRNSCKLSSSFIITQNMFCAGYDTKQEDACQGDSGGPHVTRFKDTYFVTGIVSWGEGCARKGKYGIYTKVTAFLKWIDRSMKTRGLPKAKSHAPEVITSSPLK

In the case of CCCc1c(-c2csc(-c3cc(C(=N)N)sc3SC)n2)cnn1-c1ccccn1, the Ki is reported as 5000 nM.

Molecular target: not listed separately
Test: In vitro binding affinity towards human Complement C1r subcomponent

Compound CCCc1c(-c2csc(-c3cc(C(=N)N)sc3SC)n2)cnn1-c1ccccn1 has a Ki greater than 50000 nM.

Molecular target: T1, Complement C1s subcomponent (Homo sapiens, UniProt P09871)
T1 sequence (P09871 whole entry): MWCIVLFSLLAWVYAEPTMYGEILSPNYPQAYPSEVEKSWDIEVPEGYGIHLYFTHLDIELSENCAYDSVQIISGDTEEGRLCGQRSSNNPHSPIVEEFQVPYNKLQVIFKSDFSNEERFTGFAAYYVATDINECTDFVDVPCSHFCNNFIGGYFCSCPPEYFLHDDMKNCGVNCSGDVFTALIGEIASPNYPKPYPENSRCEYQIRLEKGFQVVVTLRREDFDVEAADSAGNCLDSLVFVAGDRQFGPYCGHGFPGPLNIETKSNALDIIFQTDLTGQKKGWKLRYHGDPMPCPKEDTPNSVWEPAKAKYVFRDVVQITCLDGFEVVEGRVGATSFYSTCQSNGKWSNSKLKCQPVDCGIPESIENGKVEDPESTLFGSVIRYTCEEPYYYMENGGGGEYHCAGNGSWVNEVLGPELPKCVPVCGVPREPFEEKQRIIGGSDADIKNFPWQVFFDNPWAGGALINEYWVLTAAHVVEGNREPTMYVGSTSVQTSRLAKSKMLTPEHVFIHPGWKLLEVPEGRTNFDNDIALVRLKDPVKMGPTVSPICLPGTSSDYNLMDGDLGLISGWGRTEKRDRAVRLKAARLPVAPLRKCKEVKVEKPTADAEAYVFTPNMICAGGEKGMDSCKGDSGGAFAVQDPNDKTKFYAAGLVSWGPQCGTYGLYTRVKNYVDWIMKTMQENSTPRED
Test: In vitro binding affinity towards human Complement C1s subcomponent

Compared with CSc1sc(C(=N)N)cc1-c1nc(-c2cnn(-c3ccccc3)c2OCCC(C)C)cs1, CCOc1c(-c2csc(-c3cc(C(=N)N)sc3SC)n2)cnn1-c1ccccc1 is 17-fold lower in Ki: 1500 nM for the first, 90 nM for the second. The second binds more tightly here.

Going from CSc1sc(C(=N)N)cc1-c1nc(-c2cnn(C)c2)cs1 to CCCc1nn(C)cc1-c1csc(-c2cc(C(=N)N)sc2SC)n1, the Ki falls from 460 nM to 190 nM (2.4-fold). The second binds more tightly here.

First: CSc1sc(C(=N)N)cc1-c1nc(-c2cnn(-c3ccccc3)c2OCC2CCC2)cs1
Second: CCCc1c(-c2csc(-c3cc(C(=N)N)sc3SC)n2)cnn1-c1ccccc1
The Ki of the first is 8.8-fold higher: 530 nM for the first, 60 nM for the second.

First: N=C(N)c1cc(-c2nc(-c3ccccc3)cs2)c(C(F)(F)F)s1
Second: Cc1sc(C(=N)N)cc1-c1nc(-c2ccccc2)cs1
The Ki of the first is 2.1-fold higher: 12500 nM for the first, 6000 nM for the second. The second binds more tightly here.

N=C(N)c1cc(-c2nc(-c3ccccc3)cs2)c(SCc2ccccc2)s1 and CCSc1sc(C(=N)N)cc1-c1nc(-c2ccccc2)cs1 cannot be ordered by Ki: greater than 20000 nM for the first, greater than 20000 nM for the second.

Going from CS(=O)(=O)c1sc(C(=N)N)cc1-c1nc(-c2ccccc2)cs1 to CSc1sc(C(=N)N)cc1-c1nc(-c2ccccc2)cs1, the Ki falls from greater than 28000 nM to 560 nM. The second binds more tightly here.

COc1ccccc1-c1csc(-c2cc(C(=N)N)sc2SC)n1 and CSc1sc(C(=N)N)cc1-c1nc(-c2ccccc2C)cs1 are the same in Ki: 850 nM for the first, 850 nM for the second.

Compared with CSc1sc(C(=N)N)cc1-c1nc(C2CCCCC2)cs1, CSc1sc(C(=N)N)cc1-c1nc(-c2cccs2)cs1 is 6.7-fold lower in Ki: 4700 nM for the first, 700 nM for the second. The second binds more tightly here.

Compared with CSc1sc(C(=N)N)cc1-c1nc(-c2ccc(Cl)cc2Cl)cs1, CSc1sc(C(=N)N)cc1-c1nc(-c2ccc(Cl)cc2)cs1 is 6.9-fold lower in Ki: 3000 nM for the first, 436 nM for the second.

CSc1sc(C(=N)N)cc1-c1nc(-c2cccnc2Cl)cs1 and CSc1sc(C(=N)N)cc1-c1nc(-c2cnccc2Cl)cs1 are within 1.5-fold of each other in Ki: 1020 nM for the first, 870 nM for the second.

Going from COc1ccc(-c2csc(-c3cc(C(=N)N)sc3SC)n2)cc1 to CSc1sc(C(=N)N)cc1-c1nc(-c2ccc(C)cc2)cs1, the Ki falls from 900 nM to 420 nM (2.1-fold). The second binds more tightly here.

COc1ccc(-c2csc(-c3cc(C(=N)N)sc3SC)n2)c(OC)c1 and COc1cccc(-c2csc(-c3cc(C(=N)N)sc3SC)n2)c1 are within 1.5-fold of each other in Ki: 640 nM for the first, 470 nM for the second.

Compared with CSc1sc(C(=N)N)cc1-c1nc(-c2cccc(C)c2)cs1, CSc1sc(C(=N)N)cc1-c1nc(-c2ccc3ccccc3c2)cs1 is 2-fold lower in Ki: 960 nM for the first, 490 nM for the second.

First: CSc1sc(C(=N)N)cc1-c1nc(COc2ccccc2)cs1
Second: CSc1sc(C(=N)N)cc1-c1nc(Cc2ccccc2)cs1
The Ki of the first is 2-fold lower: 520 nM for the first, 1060 nM for the second. The first binds more tightly here.

First: CSc1sc(C(=N)N)cc1-c1nc(-c2csc3ccccc23)cs1
Second: CSc1sc(C(=N)N)cc1-c1nc(-c2cnn(-c3ccccc3)c2)cs1
The Ki of the first is 3-fold higher: 450 nM for the first, 150 nM for the second. The second binds more tightly here.

CSc1sc(C(=N)N)cc1-c1nc(-c2ccc([N+](=O)[O-])cc2)cs1 and CSc1sc(C(=N)N)cc1-c1nc(-c2ccc(Cl)c([N+](=O)[O-])c2)cs1 are within 1.5-fold of each other in Ki: 1000 nM for the first, 860 nM for the second.

Compared with CCCc1c(-c2csc(-c3cc(C(=N)N)sc3SC)n2)cnn1-c1ccccn1, CCCc1c(-c2csc(-c3cc(C(=N)N)sc3SC)n2)cnn1C is 4.7-fold higher in Ki: 70 nM for the first, 330 nM for the second. The first binds more tightly here.

Compared with N=C(N)c1cc(-c2nc(-c3ccccc3)cs2)cs1, COc1sc(C(=N)N)cc1-c1nc(-c2ccccc2)cs1 is lower in Ki: greater than 20000 nM for the first, 14400 nM for the second.

Compared with CSc1sc(C(=N)N)cc1-c1ncc(-c2ccccc2)s1, CSc1sc(C(=N)N)cc1-c1nc(-c2ccc(-c3ccccc3)cc2)cs1 is 4.7-fold higher in Ki: 3250 nM for the first, 15400 nM for the second.

With CCc1sc(C(=N)N)cc1-c1nc(-c2ccccc2)cs1 the Ki was 3000 nM.

Molecular target: Plasminogen (Rattus norvegicus, UniProt Q01177)
Test: In vitro binding affinity towards plasmin was determined

Chain of Plasminogen (Q01177 97-581 limits assumed): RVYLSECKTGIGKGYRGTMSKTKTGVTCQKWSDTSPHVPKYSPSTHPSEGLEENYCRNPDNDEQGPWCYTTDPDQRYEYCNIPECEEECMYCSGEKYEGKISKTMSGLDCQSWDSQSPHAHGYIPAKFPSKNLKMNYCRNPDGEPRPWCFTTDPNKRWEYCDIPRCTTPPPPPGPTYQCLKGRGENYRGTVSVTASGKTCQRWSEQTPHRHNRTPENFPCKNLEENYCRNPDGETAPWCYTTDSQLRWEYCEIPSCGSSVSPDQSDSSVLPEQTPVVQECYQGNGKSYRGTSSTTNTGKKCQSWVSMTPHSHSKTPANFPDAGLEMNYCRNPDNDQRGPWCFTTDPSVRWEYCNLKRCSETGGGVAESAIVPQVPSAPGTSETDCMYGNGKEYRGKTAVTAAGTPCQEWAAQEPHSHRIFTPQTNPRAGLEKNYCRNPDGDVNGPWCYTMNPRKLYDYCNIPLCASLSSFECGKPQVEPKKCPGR
Chain of Plasminogen (Q01177 582-812 limits assumed): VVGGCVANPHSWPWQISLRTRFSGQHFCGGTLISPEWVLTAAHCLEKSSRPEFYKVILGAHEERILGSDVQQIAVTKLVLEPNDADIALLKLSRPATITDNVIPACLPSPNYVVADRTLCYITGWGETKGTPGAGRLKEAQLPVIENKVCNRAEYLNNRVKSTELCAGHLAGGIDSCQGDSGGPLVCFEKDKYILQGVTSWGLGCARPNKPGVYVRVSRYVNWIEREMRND

CCCc1c(-c2csc(-c3cc(C(=N)N)sc3SC)n2)cnn1-c1ccccn1 showed a Ki of 5000 nM.

Molecular target: Prothrombin (Homo sapiens, UniProt P00734)
Test: In vitro binding affinity towards thrombin was determined

For CCCc1c(-c2csc(-c3cc(C(=N)N)sc3SC)n2)cnn1-c1ccccn1, the Ki was greater than 50000 nM.

Molecular target: Serine protease 1 (Homo sapiens, UniProt P07477)
Test: In vitro binding affinity towards trypsin was determined

Chain of Serine protease 1 (P07477 whole entry): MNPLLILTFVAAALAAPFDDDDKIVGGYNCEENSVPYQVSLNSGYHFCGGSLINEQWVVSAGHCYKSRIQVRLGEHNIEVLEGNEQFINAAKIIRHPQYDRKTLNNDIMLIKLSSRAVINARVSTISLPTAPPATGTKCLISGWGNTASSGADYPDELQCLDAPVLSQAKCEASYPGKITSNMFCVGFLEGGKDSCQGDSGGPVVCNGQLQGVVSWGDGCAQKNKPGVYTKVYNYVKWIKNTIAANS

CCCc1c(-c2csc(-c3cc(C(=N)N)sc3SC)n2)cnn1-c1ccccn1 showed a Ki of 180 nM.
